According to publication PMC11241255 (International Journal of Molecular Sciences, 2024):
“And” between values parts separate entries of the source, which are not always exact repeats. Identical values can stand only once. Like-named read-outs stand apart in the source and are kept apart here.

Experiments:
[1] = target: T1, Acetylcholinesterase (Electrophorus electricus, Type VI-S) (Electrophorus electricus, UniProt O42275); test: biochemical; settings: for Type of Inhibition of AChE: Lineweaver–Burk plot, 100 and 200 μg/mL; for Vmax of AChE in presence of inhibitor: no inhibitor 2.975; for IC50: read-out: AChE IC50 (converted)
T1 construct: purchased Sigma-Aldrich
Experimental: The AChE activity was examined by slight modifications [23] in Ellman’s method [76]. The extracts and phytocompounds were incubated for 15 min with AChE and 10 mM ATCC at 37 °C. The reaction was stopped by DTNB (15 mM), and the absorbance was measured at 412 nm (Multi-mode plate reader, Synergy-H1 BioTek, Agilent, USA). […] The percent inhibition was calculated as:Percent Inhibition (I%) = [(Ao − Ac) − (Bi − Bc)]/(Ao − Ac) × 100 where Ao is the absorbance without inhibitor; Ac is the negative control without inhibitor; Bi is the absorbance with inhibitor; and Bc is the negative control with inhibitor. The IC50 values were calculated using GraphPad Prism 10. Lineweaver–Burk plot was used to prepare the inhibition curves (with and without extract/phytocompound) using GraphPad Prism 10. The kinetic parameters were calculated from a non-linear fit (Michaelis–Menten equation) in GraphPad Prism 10.
Statistical analysis was established by a one-way ANOVA followed by Dunnett’s post hoc test. Data are registered as the mean ± SEM of three sets of experiments. […] The IC50 values were determined using non-linear regression. The Vmax and Km were calculated from a Michaelis–Menten plot drawn using a non-linear plot (GraphPad Prism 10). Lineweaver–Burk plots were drawn using linear regression analysis (GraphPad Prism 10). The Ki values were calculated from the formula IC50 = Ki (1 + [S]/Km).

SH-SY5Y cells = test: Mitochondrial membrane potential (ΔΨm) assay (TMRE); format: cell-based, Human; settings: 12 h pre-treatment, 200 μM H2O2 2 h
Experimental: Human neuroblastoma SH-SY5Y cells (ATCC CRL-2266, Manassas, VA, USA) were maintained in Dulbecco’s modified Eagle’s medium (DMEM, Gibco) supplemented with 10% fetal bovine serum (FBS), 1% kanamycin, and 1% penicillin (Thermo Fisher Scientific, Waltham, MA, USA) at 37 °C with 5% CO2, and a 95% humidified atmosphere in the incubator. The experiments were executed at 80–90% cell confluency.
The mitochondrial membrane potential was measured using the tetramethylrhodamine, methyl ester (TMRE) staining method. The cells (1 × 10^4 cells/well) were seeded in a 96-well sterile plate; after which, they were pre-treated with the extract for 12 h. The extracts and phytocompounds were removed, followed by a 2 h treatment with H2O2 (200 μM). A 1 μM amount of TMRE was added to the cells and incubated for 1 h at 37 °C. The fluorescence was assessed (Ex 549 nm, Ems 575 nm) using a microplate reader (Synergy-H1 BioTek, Agilent, USA). The ΔΨm was calculated as a percentage of the untreated control cells (100%) in triplicate measurements.

T1 sequence (O42275 24-633): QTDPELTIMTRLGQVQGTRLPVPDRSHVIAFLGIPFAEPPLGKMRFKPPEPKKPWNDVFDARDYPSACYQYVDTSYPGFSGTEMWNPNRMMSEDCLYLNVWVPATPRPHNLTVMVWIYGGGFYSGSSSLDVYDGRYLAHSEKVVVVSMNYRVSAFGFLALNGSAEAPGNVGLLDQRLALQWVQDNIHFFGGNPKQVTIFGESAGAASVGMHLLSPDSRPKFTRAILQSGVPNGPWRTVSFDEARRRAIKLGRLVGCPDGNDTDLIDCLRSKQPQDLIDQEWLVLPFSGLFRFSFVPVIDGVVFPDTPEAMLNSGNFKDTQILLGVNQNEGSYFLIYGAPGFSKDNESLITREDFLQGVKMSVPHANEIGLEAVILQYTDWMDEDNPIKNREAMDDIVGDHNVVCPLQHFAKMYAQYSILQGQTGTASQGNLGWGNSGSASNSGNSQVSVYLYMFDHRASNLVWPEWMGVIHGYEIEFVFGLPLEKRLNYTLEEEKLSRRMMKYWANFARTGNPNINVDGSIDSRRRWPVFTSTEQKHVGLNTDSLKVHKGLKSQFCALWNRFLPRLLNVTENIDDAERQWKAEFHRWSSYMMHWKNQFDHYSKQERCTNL

Compound: C=C(C)[C@H]1CC=C(C)C(=O)C1 [carvone, D-carvone]
- Ki ([1]; Ki): 1.8 mM
- Ki ([1]; Ki (inhibitor constant), AChE): 1.8 mM and 1.79 mM
- Type of Inhibition of AChE [1]: competitive inhibition
- Type of Inhibition of AChE ([1]; listed as Carvone): Competitive
- Vmax of AChE in presence of inhibitor ([1]; inhibitor 100 μg/mL): 2.900 µmol/min/mg
- Vmax of AChE in presence of inhibitor ([1]; inhibitor 200 μg/mL): 3.141 µmol/min/mg
- IC50 ([1]; mean of three experiments ± SEM): 1.84 mM
- IC50 ([1]; molar equivalent of the μg/mL value): 1.83 mM
- MMP (% ΔΨm vs untreated cells) (SH-SY5Y cells; 0.1 µg/mL): 71.61 ± 0.70%
- MMP (% ΔΨm vs untreated cells) (SH-SY5Y cells; 1 µg/mL): 80.80 ± 1.20%
- MMP (% ΔΨm vs untreated cells) (SH-SY5Y cells; 10 µg/mL): 85.18 ± 4.96%
- MMP (% ΔΨm vs untreated cells) (SH-SY5Y cells; 30 µg/mL): 87.19 ± 6.26%
